Measured values: patent US20180000085A1, “USE OF PICOLINAMIDE COMPOUNDS WITH FUNGICIDAL ACTIVITY” (DOW AGROSCIENCES LLC, priority 2014, published 2018)

Key:
Zymoseptoria tritici = test: Leaf blotch of wheat (SEPTTR) disease control on wheat seedlings; type: in vivo; set-up: key to SEPTTR 1DP, HV activity at 100 ppm (% control rating) / SEPTTR 3DC, HV activity at 100 ppm (% control rating) / SEPTTR disease control, 1DP / SEPTTR disease control, 3DC / SEPTTR 1DP disease control rating, HV activity / SEPTTR 3DC disease control rating, HV activity / SEPTTR 3DC, LV activity at 125.1 g/H (% Control rating) / SEPTTR 1DP, LV activity at 125.1 g/H (% Control rating) / SEPTTR 1DP disease control rating, LV activity at 125.1 g/H / SEPTTR 3DC disease control rating, LV activity at 125.1 g/H / SEPTTR 3DC disease control rating, HV activity at 100 ppm / SEPTTR 1DP disease control rating, HV activity at 100 ppm / HV activity at 100 ppm SEPTTR 3DC (disease control rating) / HV activity at 100 ppm SEPTTR 1DP (disease control rating) / LV activity at 125.1 g/H SEPTTR 1DP (disease control rating) / LV activity at 125.1 g/H SEPTTR 3DC (disease control rating): A: > 80; B: ≤ 80; C: Not Tested; D: No Activity Observed in the Reported Assay; conditions: low volume application, 125.1 g/H, wheat leaf blotch; for LV activity at 125.1 g/H SEPTTR 1DP (disease control rating): 1 Day Protectant; for LV activity at 125.1 g/H SEPTTR 3DC (disease control rating): 3 Day Curative
Puccinia triticina = test: Wheat brown rust (PUCCRT) disease control on wheat seedlings; type: in vivo; set-up: key to PUCCRT 3DC, HV activity at 100 ppm (% control rating) / PUCCRT disease control, 3DC / PUCCRT 1DP disease control rating, HV activity / PUCCRT 3DC disease control rating, HV activity / PUCCRT 3DC, LV activity at 125.1 g/H (% Control rating) / PUCCRT 1DP, LV activity at 125.1 g/H (% Control rating) / PUCCRT 3DC disease control rating, LV activity at 125.1 g/H / PUCCRT 1DP disease control rating, LV activity at 125.1 g/H / PUCCRT 3DC disease control rating, HV activity at 100 ppm / PUCCRT 1DP disease control rating, HV activity at 100 ppm / HV activity at 100 ppm PUCCRT 3DC (disease control rating) / LV activity at 125.1 g/H PUCCRT 1DP (disease control rating) / LV activity at 125.1 g/H PUCCRT 3DC (disease control rating): A: > 80; B: ≤ 80; C: Not Tested; D: No Activity Observed in the Reported Assay; conditions: low volume application, 125.1 g/H, wheat brown rust; for LV activity at 125.1 g/H PUCCRT 1DP (disease control rating): 1 Day Protectant; for LV activity at 125.1 g/H PUCCRT 3DC (disease control rating): 3 Day Curative

Compound | LV activity at 125.1 g/H SEPTTR 1DP (disease control rating) (Zymoseptoria tritici) | LV activity at 125.1 g/H SEPTTR 3DC (disease control rating) (Zymoseptoria tritici) | LV activity at 125.1 g/H PUCCRT 1DP (disease control rating) (Puccinia triticina) | LV activity at 125.1 g/H PUCCRT 3DC (disease control rating) (Puccinia triticina)
C=CC[C@@H](Oc1ccc(C(F)(F)F)cc1)[C@H](C)OC(=O)[C@H](C)NC(=O)c1nccc(OC)c1OCOC(C)=O [Cmpd 1077] | B (≤ 80) | D | A (> 80) | B (≤ 80)
C=CC[C@@H](Oc1cc(F)cc(Cl)c1)[C@H](C)OC(=O)[C@H](C)NC(=O)c1nccc(OC)c1OCOC(C)=O [Cmpd 1078] | B (≤ 80) | B (≤ 80) | A (> 80) | A (> 80)
C=CC[C@@H](Oc1cccc(Cl)c1)[C@H](C)OC(=O)[C@H](C)NC(=O)c1nccc(OC)c1OC(C)=O [Cmpd 1079] | B (≤ 80) | B (≤ 80) | A (> 80) | A (> 80)
C=CC[C@@H](Oc1cc(F)cc(Cl)c1)[C@H](C)OC(=O)[C@H](C)NC(=O)c1nccc(OC)c1OC(C)=O [Cmpd 1080] | B (≤ 80) | B (≤ 80) | A (> 80) | B (≤ 80)
C=CC[C@@H](Oc1ccc(F)cc1F)[C@H](C)OC(=O)[C@H](C)NC(=O)c1nccc(OC)c1OC(C)=O [Cmpd 1081] | D | D | A (> 80) | B (≤ 80)
C=CC[C@@H](OCC(=C)C)[C@H](C)OC(=O)[C@H](C)NC(=O)c1nccc(OC)c1OCOC(C)=O [Cmpd 1082] | D | D | B (≤ 80) | A (> 80)
C=CC[C@@H](Oc1cccc(Cl)c1)[C@H](C)OC(=O)[C@H](C)NC(=O)c1nccc(OC)c1OCOC(C)=O [Cmpd 1083] | B (≤ 80) | A (> 80) | A (> 80) | A (> 80)
C=CC[C@@H](Oc1ccc(C(F)(F)F)cc1)[C@H](C)OC(=O)[C@H](C)NC(=O)c1nccc(OC)c1OC(C)=O [Cmpd 1084] | B (≤ 80) | B (≤ 80) | B (≤ 80) | D
C=CC[C@@H](OCC1CC1)[C@H](C)OC(=O)[C@H](C)NC(=O)c1nccc(OC)c1OC(C)=O [Cmpd 1085] | D | D | D | B (≤ 80)
CC(=O)OCOc1c(Br)ccnc1C(=O)N[C@@H](C)C(=O)O[C@@H](C)[C@H](Oc1ccccc1)C(C)C [Cmpd 1086] | D | D | B (≤ 80) | D
COc1ccnc(C(=O)NC(C)C(=O)OC(C(C)C)C(Oc2ccccc2)C(C)C)c1OCOC(C)=O (stereo not shown) [Cmpd 1088] | D | D | B (≤ 80) | D
COCC(OC(=O)C(C)NC(=O)c1nccc(OC)c1OCOC(C)=O)C(Oc1ccccc1)C(C)C (stereo not shown) [Cmpd 1090] | D | D | D | B (≤ 80)
C=CC(OC(=O)C(C)NC(=O)c1nccc(OC)c1OCOC(C)=O)C(Oc1ccccc1)C(C)C (stereo not shown) [Cmpd 1092] | D | D | B (≤ 80) | B (≤ 80)
CCCC(OC(=O)C(C)NC(=O)c1nccc(OC)c1OCOC(C)=O)C(Oc1ccccc1)C(C)C (stereo not shown) [Cmpd 1093] | D | D | D | D
COc1ccnc(C(=O)NC(C)C(=O)OC(C(C)C)C(Oc2ccccc2)C(C)C)c1OCOC(C)=O (stereo not shown) [Cmpd 1094] | D | D | D | D
COCC(OC(=O)C(C)NC(=O)c1nccc(OC)c1OCOC(C)=O)C(Oc1ccccc1)C(C)C (stereo not shown) [Cmpd 1095] | D | D | B (≤ 80) | B (≤ 80)
CCCC(OC(=O)C(C)NC(=O)c1nccc(OC)c1OCOC(C)=O)C(Oc1ccccc1)C(C)C (stereo not shown) [Cmpd 1096] | D | B (≤ 80) | D | D
CCOc1ccnc(C(=O)NC(C)C(=O)OC(C)C(CC(C)C)Oc2ccc(C)cc2Cl)c1OC(C)=O (stereo not shown) [Cmpd 1098] | D | D | D | B (≤ 80)
COc1ccnc(C(=O)NC(C)C(=O)OC(C)C(CC(C)C)Oc2ccc3ccccc3c2)c1OC(C)=O (stereo not shown) [Cmpd 1099] | B (≤ 80) | D | A (> 80) | A (> 80)
COCCC(=O)Oc1c(OC)ccnc1C(=O)NC(C)C(=O)OC(C)C(CC(C)C)Oc1ccccc1 (stereo not shown) [Cmpd 1100] | A (> 80) | A (> 80) | A (> 80) | A (> 80)
CCOc1ccnc(C(=O)N[C@@H](C)C(=O)O[C@@H](C)[C@@H](CC(C)C)Oc2cccc(F)c2)c1OC(C)=O [Cmpd 1107] | D | D | B (≤ 80) | B (≤ 80)
CCOc1ccnc(C(=O)N[C@@H](C)C(=O)O[C@@H](C)[C@@H](CC(C)C)Oc2cccc(Cl)c2)c1OC(C)=O [Cmpd 1109] | D | B (≤ 80) | B (≤ 80) | B (≤ 80)
CCOc1ccnc(C(=O)N[C@@H](C)C(=O)O[C@@H](C)[C@@H](CC(C)C)Oc2ccc(Cl)c(OC)c2)c1OC(C)=O [Cmpd 1110] | D | D | D | D
COc1ccnc(C(=O)N[C@@H](C)C(=O)O[C@@H](C)[C@@H](CC(C)C)OCC(C)C)c1OC(C)=O [Cmpd 1111] | B (≤ 80) | A (> 80) | A (> 80) | A (> 80)
COc1ccnc(C(=O)N[C@@H](C)C(=O)O[C@@H](C)[C@@H](CC(C)C)OCC2CC2)c1OC(C)=O [Cmpd 1112] | D | D | B (≤ 80) | A (> 80)
